Reference: ChEMBL document CHEMBL1132443, “Antimalarial, antiproliferative, and antitumor activities of artemisinin-derived, chemically robust, trioxane dimers” (J Med Chem, 1999)

The molecules below were run on Plasmodium falciparum (assay: In vitro antimalarial activity against chloroquine-sensitive Plasmodium falciparum NF54).
Format: functional, organism-based
`COc1cc(OC)c([C@@H]2O[C@@H]3O[C@]4(C)CC[C@H]5[C@H](C)CC[C@@H]([C@H]2C)[C@@]35OO4)cc1[C@@H]1O[C@@H]2O[C@]3(C)CC[C@H]4[C@H](C)CC[C@@H]([C@H]1C)[C@@]24OO3` showed an IC50 of 1.3 nM. With `C[C@@H]1CC[C@H]2[C@@H](C)C(=O)O[C@@H]3O[C@@]4(C)CC[C@@H]1[C@]32OO4` [ARTEMISININ] the IC50 was 9.7 nM. `C[C@H]1[C@@H](CC(=O)c2cccc(C(=O)C[C@H]3O[C@@H]4C[C@]5(C)CC[C@H]6[C@H](C)CC[C@@H]([C@H]3C)[C@@]46OO5)c2)O[C@@H]2C[C@]3(C)CC[C@H]4[C@H](C)CC[C@@H]1[C@@]24OO3` showed an IC50 of 1.9 nM. In the case of `C[C@H]1[C@H](c2ccc([C@@H]3O[C@@H]4O[C@]5(C)CC[C@H]6[C@H](C)CC[C@@H]([C@H]3C)[C@@]46OO5)o2)O[C@@H]2O[C@]3(C)CC[C@H]4[C@H](C)CC[C@@H]1[C@@]24OO3`, the IC50 is reported as 3.2 nM. `C[C@H]1[C@@H](C#Cc2cccc(C#C[C@H]3O[C@@H]4O[C@]5(C)CC[C@H]6[C@H](C)CC[C@@H]([C@H]3C)[C@@]46OO5)c2)O[C@@H]2O[C@]3(C)CC[C@H]4[C@H](C)CC[C@@H]1[C@@]24OO3` showed an IC50 of 36 nM. `C[C@H]1[C@@H](C#Cc2ccc(C#C[C@H]3O[C@@H]4O[C@]5(C)CC[C@H]6[C@H](C)CC[C@@H]([C@H]3C)[C@@]46OO5)cc2)O[C@@H]2O[C@]3(C)CC[C@H]4[C@H](C)CC[C@@H]1[C@@]24OO3` showed an IC50 of 30 nM. `C[C@H]1[C@@H](CC(=O)c2ccc(C(=O)C[C@H]3O[C@@H]4O[C@]5(C)CC[C@H]6[C@H](C)CC[C@@H]([C@H]3C)[C@@]46OO5)cc2)O[C@@H]2O[C@]3(C)CC[C@H]4[C@H](C)CC[C@@H]1[C@@]24OO3` gave an IC50 of 1.9 nM.
